Experimental data published in patent US9159937B2, “Heteroleptic light-emitting complexes” (SOLVAY SA, priority 2011, dated 2015).
Like-named read-outs stand apart in the source and are kept apart here.

Assays:
[1] = Solubility evaluation in toluene; format: physicochemical
Procedure: Solubility evaluation were performed at 25° C. using toluene as solvent.

[2] = Glass transition temperature by DSC; format: physicochemical
Procedure: The glass transition temperatures Tg were measured using a TA instruments 2920 DSC equipment and data evaluation were done with the TA Instruments Universal Analysis 2000 software.

Toluene solubility S at 25° C. ([1]; listed as Ir(2-PhQ)3) | Tg [2] | Compound | Toluene solubility S at 25° C. [1]
< 0.02 wt % |  | [Ir+3].[c-]1ccccc1-c1ccc2ccccc2n1.[c-]1ccccc1-c1ccc2ccccc2n1.[c-]1ccccc1-c1ccc2ccccc2n1 [[Ir(2-PhQ)3], reference compound] | S < 0.02 wt %
 |  | [Ir(2-PhQ)2(DMC2)] | S > 0.25 wt %
 | 54 °C | [Ir(n-hexPhQ)3] [reference compound] | 
